In PubChem BioAssay AID1919005 (Molecular Pharmacology Branch, DTP, NCI, 2023):

Test system: 855422-203-R-J1-PDC complex spheroid growth
Experiment: Anticancer human tumor 855422-203-R-J1-PDC patient-derived bladder carcinoma cell line growth inhibition [AhR]
Details: for IC50: curve of first compound; for viability, T/C: stronger effect = lower value
In short: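 Agents were dosed in half-log steps down from roughly clinical Cmax, or from 10 microM where Cmax was unknown, alone and with AhR antagonists. Read-out: percent test/control growth of tumor spheroids containing HUVEC and MSC stromal cells.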

[1] = second compound 0.1 µM, first compound 0.000316 µM
[2] = second compound 0.1 µM, first compound 0.001 µM
[3] = second compound 0.1 µM, first compound 0.00316 µM
[4] = second compound 0.1 µM, first compound 0.01 µM
[5] = second compound 0.1 µM, first compound 0.0316 µM
[6] = second compound 0.1 µM, first compound 0.1 µM
[7] = second compound 0.316 µM, first compound 0.000316 µM
[8] = second compound 0.316 µM, first compound 0.001 µM
[9] = second compound 0.316 µM, first compound 0.00316 µM
[10] = second compound 0.316 µM, first compound 0.01 µM
[11] = second compound 0.316 µM, first compound 0.0316 µM
[12] = second compound 0.316 µM, first compound 0.1 µM
[13] = second compound 1 µM, first compound 0.000316 µM
[14] = second compound 1 µM, first compound 0.001 µM
[15] = second compound 1 µM, first compound 0.00316 µM
[16] = second compound 1 µM, first compound 0.01 µM
[17] = second compound 1 µM, first compound 0.0316 µM
[18] = second compound 1 µM, first compound 0.1 µM
[19] = second compound 3.16 µM, first compound 0.000316 µM
[20] = second compound 3.16 µM, first compound 0.001 µM
[21] = second compound 3.16 µM, first compound 0.00316 µM
[22] = second compound 3.16 µM, first compound 0.01 µM
[23] = second compound 3.16 µM, first compound 0.0316 µM
[24] = second compound 3.16 µM, first compound 0.1 µM
[25] = second compound 10 µM, first compound 0.000316 µM
[26] = second compound 10 µM, first compound 0.001 µM
[27] = second compound 10 µM, first compound 0.00316 µM
[28] = second compound 10 µM, first compound 0.01 µM
[29] = second compound 10 µM, first compound 0.0316 µM
[30] = second compound 10 µM, first compound 0.1 µM
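Note: spheroids exposed to agents for seven days before readout.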
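Throughout, for viability, T/C: percent of DMSO vehicle control luminescence viability.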

Row | Structure (SMILES) | IC50 (second compound 0.1 µM) | IC50 (second compound 0.316 µM) | IC50 (second compound 1 µM) | IC50 (second compound 3.16 µM) | IC50 (second compound 10 µM) | viability, T/C [1] | viability, T/C [2] | viability, T/C [3] | viability, T/C [4] | viability, T/C [5] | viability, T/C [6] | viability, T/C [7] | viability, T/C [11] | viability, T/C [12] | viability, T/C [17] | viability, T/C [18] | viability, T/C [23] | viability, T/C [24] | viability, T/C [29] | viability, T/C [30] | other results
1 | CC[C@@]1(O)C(=O)OCc2c1cc1n(c2=O)Cc2cc3c(CN(C)C)c(O)ccc3nc2-1 + Cc1ccccc1N=Nc1ccc(NC(=O)c2ccnn2C)c(C)c1 | 86.1 nM | 65.1 nM | 62 nM | 31.9 nM | 30.5 nM | 104% | 103% | 106% | 97.9% | 90.4% | 43.7% | 96.7% | 77.8% | 33.5% | 74.7% | 31.9% | 49.9% | 30.8% | 48.7% | 29.7% | viability, T/C [8]: 101%; viability, T/C [9]: 94.1%; viability, T/C [10]: 97.2%; viability, T/C [13]: 110%; viability, T/C [14]: 98.3%; viability, T/C [15]: 95.2%; viability, T/C [16]: 98.7%; viability, T/C [19]: 97.4%; viability, T/C [20]: 96.4%; viability, T/C [21]: 89.3%; viability, T/C [22]: 87.1%; viability, T/C [25]: 88.1%; viability, T/C [26]: 81.7%; viability, T/C [27]: 87.6%; viability, T/C [28]: 86.9%
2 | CC[C@@]1(O)C(=O)OCc2c1cc1n(c2=O)Cc2cc3c(CN(C)C)c(O)ccc3nc2-1 + CC(CO)NC(=O)c1cc(-c2ccc(Cl)cc2)nn(-c2cnn(C)c2)c1=O | 60.2 nM | 58.6 nM | 56.4 nM | 54.7 nM | 45.1 nM | 96.7% | 97.5% | 93.7% | 102% | 86.5% | 20.9% | 106% | 87.3% | 17.9% | 84.9% | 15.5% | 83.5% | 13% | 65.8% | 14.8% | viability, T/C [8]: 100%; viability, T/C [9]: 98.8%; viability, T/C [10]: 98.9%; viability, T/C [13]: 104%; viability, T/C [14]: 97.8%; viability, T/C [15]: 105%; viability, T/C [16]: 104%; viability, T/C [19]: 99.4%; viability, T/C [20]: 96.6%; viability, T/C [21]: 93%; viability, T/C [22]: 95.5%; viability, T/C [25]: 86.2%; viability, T/C [26]: 100%; viability, T/C [27]: 102%; viability, T/C [28]: 96.3%
3 | O=C(c1cc(Cc2n[nH]c(=O)c3ccccc23)ccc1F)N1CCN(C(=O)C2CC2)CC1 + Cc1ccccc1N=Nc1ccc(NC(=O)c2ccnn2C)c(C)c1 | > 10000 nM | > 10000 nM | > 10000 nM | > 10000 nM | > 10000 nM | – | – | – | – | 96.5% | 102% | – | 102% | 100% | 97.6% | 102% | 90.2% | 91.7% | 80.9% | 79.3% | viability, T/C (second compound 0.1 µM, first compound 0.316 µM): 99.3%; viability, T/C (second compound 0.1 µM, first compound 1 µM): 95.1%; viability, T/C (second compound 0.1 µM, first compound 3.16 µM): 90.9%; viability, T/C (second compound 0.1 µM, first compound 10 µM): 93.2%; viability, T/C (second compound 0.316 µM, first compound 0.316 µM): 97.8%; viability, T/C (second compound 0.316 µM, first compound 1 µM): 93.1%; viability, T/C (second compound 0.316 µM, first compound 3.16 µM): 94.2%; viability, T/C (second compound 0.316 µM, first compound 10 µM): 93.1%; viability, T/C (second compound 1 µM, first compound 0.316 µM): 103%; viability, T/C (second compound 1 µM, first compound 1 µM): 100%; viability, T/C (second compound 1 µM, first compound 3.16 µM): 101%; viability, T/C (second compound 1 µM, first compound 10 µM): 94.6%; viability, T/C (second compound 3.16 µM, first compound 0.316 µM): 92.2%; viability, T/C (second compound 3.16 µM, first compound 1 µM): 94.3%; viability, T/C (second compound 3.16 µM, first compound 3.16 µM): 93.3%; viability, T/C (second compound 3.16 µM, first compound 10 µM): 84.2%; viability, T/C (second compound 10 µM, first compound 0.316 µM): 76.9%; viability, T/C (second compound 10 µM, first compound 1 µM): 79.7%; viability, T/C (second compound 10 µM, first compound 3.16 µM): 74%; viability, T/C (second compound 10 µM, first compound 10 µM): 63.6%
4 | Cn1ncnc1C1c2n[nH]c(=O)c3cc(F)cc(c23)NC1c1ccc(F)cc1 (stereo not given) + Cc1ccccc1N=Nc1ccc(NC(=O)c2ccnn2C)c(C)c1 | > 100 nM | > 100 nM | > 100 nM | > 100 nM | > 100 nM | 102% | 96% | 102% | 100% | 93.8% | 100% | 106% | 92.6% | 90% | 98.2% | 96.3% | 87.4% | 91.8% | 76.2% | 77% | viability, T/C [8]: 96.4%; viability, T/C [9]: 95.7%; viability, T/C [10]: 96.1%; viability, T/C [13]: 104%; viability, T/C [14]: 105%; viability, T/C [15]: 97.7%; viability, T/C [16]: 103%; viability, T/C [19]: 88.4%; viability, T/C [20]: 97.3%; viability, T/C [21]: 93.9%; viability, T/C [22]: 90.8%; viability, T/C [25]: 80.1%; viability, T/C [26]: 78.5%; viability, T/C [27]: 82.5%; viability, T/C [28]: 81.6%
